System: 233499-124-R-J3-PDC spheroids with HUVEC/MSC, viability
Experiment: Anticancer human tumor 233499-124-R-J3-PDC patient-derived colon adenocarcinoma cell line growth inhibition [PI3K]
Settings: for IC50: curve of first compound; for viability, T/C: stronger effect = lower value
Description: Combinatorial screen of targeted agents with the PI3K inhibitors inavolisib, alpelisib, duvelisib, and copanlisib in multi-cell type tumor spheroids
A high-throughput screen of multi-cell type tumor spheroids was designed to identify active combinations of targeted small molecules and PI3K pathway inhibitors. Complex spheroids include a stromal component modeled by human endothelial cells (HUVEC) and fibroblasts modeled by human mesenchymal stem cells (MSCs). The concentration ranges selected for each drug and investigational agent were based upon clinically achievable concentrations if the clinical Cmax of the agent was known.
Compounds. The drugs and investigational agents: inavolisib (NSC800729), alpelisib (NSC765974), duvelisib (NSC772469), copanlisib (NSC816437), ipatasertib (NSC767898), afuresertib (NSC778305), talazoparib (NSC767125), sapanisertib (NSC764658), selumetinib (NSC741078), tovorafenib (DAY101, NSC766906), vemurafenib (NSC761431), ravoxertinib (NSC781343), sotorasib (NSC818433), MRTX1133 (NSC 836407), abemaciclib (NSC 768073), palbociclib (NSC758247), venetoclax (NSC 766270), SY5609 (NSC837396), enzalutamide (NSC755605), and darolutamide (NSC825331), were obtained from the National Cancer Institute (NCI) Developmental Therapeutics Program Chemical Repository. The FDA-approved anticancer drug set is available from the NCI Developmental Therapeutics Program. […] The stock solutions were prepared in dimethyl sulfoxide (DMSO, Sigma-Aldrich, St. Louis, MO, cat. D2650) at 800-fold the tested concentration and stored at -70 degrees C prior to their use. All drugs and investigational agents were tested over a range starting from a high concentration at or near the clinical Cmax and decreasing in half-log increments. If the clinical Cmax for an agent had not been determined, the highest concentration tested was 10 microM.
Cell Culture. All cells were maintained in an incubator at 37 degrees C and 5% CO2 with 95% humidity. The PDC lines were cultured according to standard operating procedures established by the NCI PDMR (https://pdmr.cancer.gov/sops/default.htm). All PDCs were thawed and cultured in Matrigel-coated flasks prepared with a working solution of 1X Ham's F-12 nutrient mix, without supplementation (Invitrogen, Waltham, MA, cat. 11765054), 100 U/mL penicillin-streptomycin (Invitrogen, cat. 15140122), and 2.5% Matrigel (Corning Inc., Corning, NY, cat. 354248) for the first three passages. The 354836-022-R-J1-PDC, 475296-252-R-J1-PDC, and 997726-040-R-J2-PDC lines were cultured in 6A media, which includes advanced DMEM/F-12 (Thermo Fisher Scientific, cat. 12634028), 10 mM HEPES (Thermo Fisher Scientific, cat. 15630080), 1X GlutaMAX supplement (Thermo Fisher Scientific, cat. 35050061), 0.1 mg/mL primocin (InvivoGen, San Diego, CA, cat. ant-pm-2), 10% defined fetal bovine serum, heat inactivated (HyClone Laboratories Inc., Logan, UT, cat. SH30070.03HI), 50% L-WRN conditioned media (ATCC, cat. CRL-3276), 1.25 mM N-Acetyl-L-cysteine (Sigma-Aldrich, cat. A9165), 10 mM nicotinamide (Sigma-Aldrich, cat. N0636), 1X B-27 supplement (Thermo Fisher Scientific, cat. 17504044), 1X N-2 supplement (Thermo Fisher Scientific, cat. 17502048), and 10 microM Y-27632 dihydrochloride (Tocris Bioscience, Bristol, United Kingdom, cat. 1254). The 624824-186-R-J2-PDC line was cultured in 6C/Colon 1B media, which includes all 6A media components plus 50 ng/mL human EGF recombinant protein (Thermo Fisher Scientific, cat. PHG0311). […]

[1] = second compound 0.0316 µM, first compound 0.0316 µM
[2] = second compound 0.0316 µM, first compound 0.1 µM
[3] = second compound 0.0316 µM, first compound 0.316 µM
[4] = second compound 0.0316 µM, first compound 1 µM
[5] = second compound 0.0316 µM, first compound 3.16 µM
[6] = second compound 0.0316 µM, first compound 10 µM
[7] = second compound 0.1 µM, first compound 0.0316 µM
[8] = second compound 0.1 µM, first compound 0.1 µM
[9] = second compound 0.1 µM, first compound 0.316 µM
[10] = second compound 0.1 µM, first compound 1 µM
[11] = second compound 0.1 µM, first compound 3.16 µM
[12] = second compound 0.1 µM, first compound 10 µM
[13] = second compound 0.316 µM, first compound 0.0316 µM
[14] = second compound 0.316 µM, first compound 0.1 µM
[15] = second compound 0.316 µM, first compound 0.316 µM
[16] = second compound 0.316 µM, first compound 1 µM
[17] = second compound 0.316 µM, first compound 3.16 µM
[18] = second compound 0.316 µM, first compound 10 µM
[19] = second compound 1 µM, first compound 0.0316 µM
[20] = second compound 1 µM, first compound 0.1 µM
[21] = second compound 1 µM, first compound 0.316 µM
[22] = second compound 1 µM, first compound 1 µM
[23] = second compound 1 µM, first compound 3.16 µM
[24] = second compound 1 µM, first compound 10 µM
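Further: spheroids exposed to agents for seven days before readout.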
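Wherever viability, T/C is given: percent viability relative to DMSO vehicle control taken as 100%.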

How did the IC50 (second compound 0.00316 µM) turn out when `C[C@@H](NC(=O)c1ncnc(N)c1Cl)c1ncc(C(=O)Nc2cc(C(F)(F)F)c(Cl)cn2)s1` + CC(Nc1ccc2c(c1)OCCn1cc(N3C(=O)OCC3C(F)F)nc1-2)C(N)=O was run?
The IC50 was over 10 µM.

And the IC50 (second compound 0.01 µM)?
Its IC50 is over 10 µM.

And the IC50 (second compound 0.0316 µM)?
The IC50 was over 10 µM.

And the IC50 (second compound 0.1 µM)?
Its IC50 is over 10 µM.

What about the IC50 (second compound 0.316 µM) of the same compound?
The IC50 was over 10 µM.

What about the IC50 (second compound 1 µM) of the same compound?
The IC50 was over 10 µM.

What about the viability, T/C (second compound 0.00316 µM, first compound 0.0316 µM) of the same compound?
The viability, T/C was 102%.

And the viability, T/C (second compound 0.00316 µM, first compound 0.1 µM)?
Its viability, T/C is 112%.

What about the viability, T/C (second compound 0.00316 µM, first compound 0.316 µM) of the same compound?
Its viability, T/C is 113%.

And the viability, T/C (second compound 0.00316 µM, first compound 1 µM)?
The viability, T/C was 105%.

And the viability, T/C (second compound 0.00316 µM, first compound 3.16 µM)?
The viability, T/C was 126%.

What about the viability, T/C (second compound 0.00316 µM, first compound 10 µM) of the same compound?
Its viability, T/C is 90.5%.

What about the viability, T/C (second compound 0.01 µM, first compound 0.0316 µM) of the same compound?
The viability, T/C was 113%.

What about the viability, T/C (second compound 0.01 µM, first compound 0.1 µM) of the same compound?
Its viability, T/C is 119%.

And the viability, T/C (second compound 0.01 µM, first compound 0.316 µM)?
Its viability, T/C is 130%.

And the viability, T/C (second compound 0.01 µM, first compound 1 µM)?
Its viability, T/C is 105%.

And the viability, T/C (second compound 0.01 µM, first compound 3.16 µM)?
Its viability, T/C is 111%.

What about the viability, T/C (second compound 0.01 µM, first compound 10 µM) of the same compound?
Its viability, T/C is 102%.

And the viability, T/C [1]?
The viability, T/C was 99.4%.

And the viability, T/C [2]?
The viability, T/C was 119%.

And the viability, T/C [3]?
The viability, T/C was 109%.

What about the viability, T/C [4] of the same compound?
Its viability, T/C is 98.6%.

What about the viability, T/C [5] of the same compound?
Its viability, T/C is 113%.

And the viability, T/C [6]?
The viability, T/C was 74.5%.

And the viability, T/C [7]?
The viability, T/C was 87.2%.

And the viability, T/C [8]?
Its viability, T/C is 84.6%.

And the viability, T/C [9]?
The viability, T/C was 108%.

And the viability, T/C [10]?
The viability, T/C was 106%.

And the viability, T/C [11]?
Its viability, T/C is 102%.

And the viability, T/C [12]?
Its viability, T/C is 92%.

And the viability, T/C [13]?
Its viability, T/C is 82.8%.

And the viability, T/C [14]?
Its viability, T/C is 81.2%.

And the viability, T/C [15]?
Its viability, T/C is 85.6%.

What about the viability, T/C [16] of the same compound?
The viability, T/C was 95.2%.

What about the viability, T/C [17] of the same compound?
Its viability, T/C is 102%.

And the viability, T/C [18]?
The viability, T/C was 65.8%.

And the viability, T/C [19]?
Its viability, T/C is 53.5%.

And the viability, T/C [20]?
Its viability, T/C is 68.5%.

And the viability, T/C [21]?
The viability, T/C was 52.5%.

What about the viability, T/C [22] of the same compound?
Its viability, T/C is 83%.

And the viability, T/C [23]?
The viability, T/C was 77.2%.

And the viability, T/C [24]?
The viability, T/C was 56.6%.

For `CCCS(=O)(=O)Nc1ccc(F)c(C(=O)c2c[nH]c3ncc(-c4ccc(Cl)cc4)cc23)c1F` + Cc1nc(NC(=O)N2CCCC2C(N)=O)sc1-c1ccnc(C(C)(C)C(F)(F)F)c1, which IC50 (second compound 0.0316 µM) is on record?
The IC50 was 5.29 µM.

And the IC50 (second compound 0.1 µM)?
Its IC50 is 4.82 µM.

What about the IC50 (second compound 0.316 µM) of the same compound?
The IC50 was 4.83 µM.

What about the IC50 (second compound 1 µM) of the same compound?
Its IC50 is 4.7 µM.

And the IC50 (second compound 3.16 µM)?
The IC50 was 3.57 µM.

What about the IC50 (second compound 10 µM) of the same compound?
The IC50 was under 0.0316 µM.

And the viability, T/C [1]?
Its viability, T/C is 119%.

What about the viability, T/C [2] of the same compound?
Its viability, T/C is 98.2%.

And the viability, T/C [3]?
The viability, T/C was 87.2%.

What about the viability, T/C [4] of the same compound?
Its viability, T/C is 110%.

What about the viability, T/C [5] of the same compound?
The viability, T/C was 89%.

What about the viability, T/C [6] of the same compound?
The viability, T/C was 1.84%.

And the viability, T/C [7]?
Its viability, T/C is 97%.

What about the viability, T/C [8] of the same compound?
Its viability, T/C is 109%.

And the viability, T/C [9]?
The viability, T/C was 84.8%.

And the viability, T/C [10]?
Its viability, T/C is 92.5%.

What about the viability, T/C [11] of the same compound?
The viability, T/C was 77.7%.

What about the viability, T/C [12] of the same compound?
Its viability, T/C is 4.22%.

What about the viability, T/C [13] of the same compound?
Its viability, T/C is 98.9%.

And the viability, T/C [14]?
Its viability, T/C is 81.7%.

And the viability, T/C [15]?
The viability, T/C was 84.5%.

And the viability, T/C [16]?
The viability, T/C was 98.1%.

And the viability, T/C [17]?
Its viability, T/C is 78.2%.

What about the viability, T/C [18] of the same compound?
Its viability, T/C is 1.3%.

And the viability, T/C [19]?
Its viability, T/C is 82.8%.

And the viability, T/C [20]?
The viability, T/C was 71.8%.

And the viability, T/C [21]?
The viability, T/C was 86.3%.

And the viability, T/C [22]?
The viability, T/C was 67%.

What about the viability, T/C [23] of the same compound?
Its viability, T/C is 75.3%.

What about the viability, T/C [24] of the same compound?
The viability, T/C was 1.86%.

And the viability, T/C (second compound 3.16 µM, first compound 0.0316 µM)?
Its viability, T/C is 55.8%.

And the viability, T/C (second compound 3.16 µM, first compound 0.1 µM)?
The viability, T/C was 59.1%.

What about the viability, T/C (second compound 3.16 µM, first compound 0.316 µM) of the same compound?
The viability, T/C was 49.1%.

What about the viability, T/C (second compound 3.16 µM, first compound 1 µM) of the same compound?
The viability, T/C was 53.9%.

And the viability, T/C (second compound 3.16 µM, first compound 3.16 µM)?
Its viability, T/C is 59.4%.

What about the viability, T/C (second compound 3.16 µM, first compound 10 µM) of the same compound?
The viability, T/C was 4.28%.

And the viability, T/C (second compound 10 µM, first compound 0.0316 µM)?
The viability, T/C was 34.1%.

And the viability, T/C (second compound 10 µM, first compound 0.1 µM)?
Its viability, T/C is 35.4%.

And the viability, T/C (second compound 10 µM, first compound 0.316 µM)?
The viability, T/C was 50.9%.

What about the viability, T/C (second compound 10 µM, first compound 1 µM) of the same compound?
The viability, T/C was 29.8%.

And the viability, T/C (second compound 10 µM, first compound 3.16 µM)?
The viability, T/C was 22.8%.

What about the viability, T/C (second compound 10 µM, first compound 10 µM) of the same compound?
The viability, T/C was 0.89%.
